Measurements as given in US7691864B2, “Anti-hypertensive composition and methods of treatment” (University of Florida, priority 1994, dated 2010).

Tested on: Male Sprague Dawley rats
Test: Blood pressure and heart rate in carotid-catheterized rats after I.P. dosing
Format: in vivo, rat
Experimental: Male Sprague Dawley rats averaging 400 g were anesthetized with sodium pentobarbital, 50 mg/kg I.P. The animals' neck and shoulder areas were shaved and prepped for surgery. The carotid artery was isolated and clamped using an arterial hemostat. A nick was made in the artery and a segment of PE-50 intramedic tubing was inserted, directed towards the heart and tied into place. The tubing was then flushed with heparin (100 μ/ml) and skin tunneled to the shoulder area. A stylet was inserted into the tip of the catheter to prevent blood leakage. The external incisions were closed with 11 mm staples.
The animals were fasted and allowed to recover overnight. The following morning, the stylet was removed and the tubing flushed with the heparin solution. The rats were placed into individual cages and hooked up to a transducer/oscillograph. The animals were allowed to stabilize in the cages for one-half hour before any recordings began. The oscillograph was then turned on and baseline recordings of the heart rate and blood pressure were made. The rats were given diethylhomospermine in sterile normal saline at a dose of 121.9 or 10 mg/kg I.P. The animals' heart rate and blood pressure were evaluated at t=0, 0.5 (or 1), 3, 5, 10, 15 and 20 minutes post-drug.

[1] = 10 mg/kg I.P., 10 min post-drug
[2] = 10 mg/kg I.P., 15 min post-drug
[3] = 10 mg/kg I.P., 20 min post-drug
[4] = 10 mg/kg I.P., time 0 min (baseline)
[5] = 121.9 mg/kg I.P., 0.5 min post-drug
[6] = 121.9 mg/kg I.P., 3 min post-drug
[7] = 121.9 mg/kg I.P., 5 min post-drug
[8] = 121.9 mg/kg I.P., 10 min post-drug
[9] = 121.9 mg/kg I.P., 15 min post-drug
[10] = 121.9 mg/kg I.P., 20 min post-drug
[11] = 121.9 mg/kg I.P., time 0 min (baseline)

CCNCCCCNCCCCNCCCCNCC [diethylhomospermine]
Blood Pressure (10 mg/kg I.P., 1 min post-drug): 105/95 | Heart Rate (10 mg/kg I.P., 1 min post-drug): 426 b.p.m. | Blood Pressure (10 mg/kg I.P., 3 min post-drug): 110/99 | Heart Rate (10 mg/kg I.P., 3 min post-drug): 426 b.p.m. | Blood Pressure (10 mg/kg I.P., 5 min post-drug): 110/98 | Heart Rate (10 mg/kg I.P., 5 min post-drug): 426 b.p.m. | Blood Pressure [1]: 105/97 | Heart Rate [1]: 402 b.p.m. | Blood Pressure [2]: 105/97 | Heart Rate [2]: 390 b.p.m. | Blood Pressure [3]: 107/100 | Heart Rate [3]: 402 b.p.m. | Blood Pressure [4]: 135/120 | Heart Rate [4]: 414 b.p.m. | Blood Pressure [5]: 75/68 | Heart Rate [5]: 468 b.p.m. | Blood Pressure [6]: 52/44 | Heart Rate [6]: 402 b.p.m. | Blood Pressure [7]: 51/42 | Heart Rate [7]: 354 b.p.m. | Blood Pressure [8]: 42/40 | Heart Rate [8]: 336 b.p.m. | Blood Pressure [9]: 39/34 | Heart Rate [9]: 354 b.p.m. | Blood Pressure [10]: 30/28 | Heart Rate [10]: 348 b.p.m. | Blood Pressure [11]: 130/120 | Heart Rate [11]: 432 b.p.m.
